The structures appear in SMILES notation.

This assay has as its system T1, isolated tracheal spirals of the guinea pig (Cavia porcellus).
T1 construct: the whole of the trachea is roughly freed beginning from the larynx up to the tracheal bifurcation, removed and transferred; from tissue; host or cells: isolated trachea (spiral strips) of male Pirbright white guinea pigs
The experiment in a line: anticholinergic effectiveness on isolated tracheal spirals (antagonism against acetyl-β-methylcholine chloride). The settings on record: ratio of maximum agonist effect in presence (EAmB) and absence (EAm) of antagonist. From the text:
A model for this is the measurement of the anticholinergic effectiveness on isolated tracheal spirals of the guinea pig.
The test substance used was 3α-benziloyloxynortropane-8-spiro-1'-pyrrolidinium chloride (trospium chloride; MP 194), ipratropium bromide being used as comparison substance.
There is to be determined the anticholinergic effectiveness of MP 194 in comparison with the reference substance ipratropium bromide on the isolated tracheal spirals of the guinea pig.
3.1.1. animal species: guinea pig
3.1.2. animal strain: Pirbright white
3.3.1. test substance (test antagonist) trospium chloride (MP 194) (M.W. 428)
3.3.2. reference substance (reference antagonist) ipratropium bromide (Atrovent) (M.W. 412.4)
3.3.3.1. acetyl-β-methylcholine chloride (Sigma) (M.W. 195.7)
The guinea pig is stunned by a blow on the neck. Subsequently, the whole of the trachea is roughly freed beginning from the larynx up to the tracheal bifurcation, removed and transferred to tempered (37° C.) and carbogenized tyrode solution. After surrounding connective tissue has been removed as far as possible, the preparation is cut up spirally by means of fine scissors at an angle of about 45° and separated into two equal sized sections. After weighing, both preparations are provided proximally and distally with a silk thread. One thread serves for fixing the preparation by means of a loop to the bottom of the bath and the other is connected via a hook with the transducer above the bath vessel.
Subsequently, the preparations, corresponding to the calibration, are prestressed with about 80 mN and equilibrated from 50-100 minutes. During the equilibration phase, the nutrient solution in the bath vessels is renewed in 15 minute intervals. As soon as the resting muscle tonus of the preparation has stabilized, there takes place the cumulative addition of the agonist, whereby the addition of the next highest concentration first takes place when no further increase of contraction is recognisable (plateau). When the maximum contraction height of the preparation is achieved, the cumulative agonist addition is ended and the preparation is rinsed. After a further equilibration phase (v. supra), the cumulative addition of the agonist is repeated but this time in the presence of the test or reference antagonist.
3.6.1. The perfusion part consists of an L-shaped organ bath in the hollow space of which (longer limb) runs a double glass spiral through which the nutrient solution is passed into the actual bath vessel (28 ml. content; shorter limb). This bath vessel is divided into two chambers which are, however, connected together by two transverse connections. […] The inlet chambers as well as the feeding glass spirals are tempered from the outside to 37° C. by a separate liquid circulation. This tempering takes place with the help of a "Colora" ultra-thermostat type K (Colora Messtechnik GmbH, Dusseldorf, Germany) which serves as thermostat and pump. In order, in case of need, always to have available ready-for-use nutrient solution, above the organ bath is provided a double-walled storage container in which the nutrient solution is also tempered and carbogenised. This is connected via a glass stopcock and a polypropylene tube with double glass spiral in the interior of the organ bath.
3.6.2. The measurement and recording part includes a transducer (Statham-Universal-Zelle UC-2; Hugo Sachs Elektronic KG, Hugstetten, Germany). By means of a hanging-in weight, a force of 40 mN is produced on the transducer which passes as electrical signal via a connecting cable to a bridge amplifier. The amplification is smoothly so regulated that the force provided corresponds to a constant value on the scale or an analogous value on the millimeter paper of the recorder (dependent upon the amplification; see below). After fixing the organ, the preparation is prestressed to the doubled mark, corresponding to 80 mN. […]

T1 sequence (H0W1Z3 1-590): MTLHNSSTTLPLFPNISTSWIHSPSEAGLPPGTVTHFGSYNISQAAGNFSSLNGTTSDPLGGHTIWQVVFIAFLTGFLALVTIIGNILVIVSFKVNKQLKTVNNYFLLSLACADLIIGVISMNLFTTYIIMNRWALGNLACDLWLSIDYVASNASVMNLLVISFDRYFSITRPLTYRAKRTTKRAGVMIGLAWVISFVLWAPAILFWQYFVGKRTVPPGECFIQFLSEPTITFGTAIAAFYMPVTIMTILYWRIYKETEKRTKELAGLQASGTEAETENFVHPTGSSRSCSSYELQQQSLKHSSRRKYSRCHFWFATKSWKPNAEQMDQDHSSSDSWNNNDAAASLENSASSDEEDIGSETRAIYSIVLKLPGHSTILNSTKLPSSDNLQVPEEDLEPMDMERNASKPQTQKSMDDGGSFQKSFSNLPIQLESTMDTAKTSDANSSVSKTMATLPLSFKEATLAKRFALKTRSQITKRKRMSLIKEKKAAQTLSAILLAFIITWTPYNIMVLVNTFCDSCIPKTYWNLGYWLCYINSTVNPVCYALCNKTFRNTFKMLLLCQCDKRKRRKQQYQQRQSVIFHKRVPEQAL

Consider `O=C(O[C@H]1C[C@H]2CC[C@@H](C1)[N+]21CCCC1)C(O)(c1ccccc1)c1ccccc1` [trospium chloride, 3α-benziloyloxynortropane-8-spiro-1'-pyrrolidinium chloride], for which the “EAmB/EAm ± s” value was determined as 1.09 ± 0.22.

The values are drawn from patent US4780476A, “Azoniaspironortropanol esters as asthma therapeutics and broncholytics” (Madaus GmbH & Co., priority 1985, dated 1988).
